The nature of test [1]: ORAC antioxidant assay. It is filed as physicochemical. As to conditions: read-out: ORAC antioxidant EC50; positive control.
Test [2] concerns the target T1, recombinant human MAO-B (Homo sapiens, UniProt P27338).
T1 sequence (P27338 1-520): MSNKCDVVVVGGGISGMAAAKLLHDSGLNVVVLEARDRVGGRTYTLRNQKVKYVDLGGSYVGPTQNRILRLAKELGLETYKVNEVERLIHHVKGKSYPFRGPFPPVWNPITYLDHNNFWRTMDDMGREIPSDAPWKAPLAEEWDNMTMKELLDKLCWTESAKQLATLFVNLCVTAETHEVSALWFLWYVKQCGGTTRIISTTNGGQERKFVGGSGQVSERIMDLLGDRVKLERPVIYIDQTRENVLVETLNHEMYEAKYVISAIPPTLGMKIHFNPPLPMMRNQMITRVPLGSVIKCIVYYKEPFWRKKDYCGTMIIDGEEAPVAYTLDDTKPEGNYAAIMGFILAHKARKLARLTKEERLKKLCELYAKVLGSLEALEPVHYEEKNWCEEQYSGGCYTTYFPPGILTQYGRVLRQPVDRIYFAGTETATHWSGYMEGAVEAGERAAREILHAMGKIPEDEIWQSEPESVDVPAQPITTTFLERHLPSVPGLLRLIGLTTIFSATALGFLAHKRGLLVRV
Kind of test: MAO-B enzyme inhibition assay. It is filed as biochemical.

Molecules are shown by their SMILES.

This passage reports EC50 and IC50 results from article PMC8570587 (Medicinal chemistry research : an international journal for …, 2021).

In general, EC50 refers to the midpoint of the concentration-response curve. For orientation: IC50 means the concentration that inhibits the measured activity by half.

For `O=C1O[C@H]([C@@H](O)CO)C(O)=C1O` [Vitamin C], the EC50 in test [1] is 25.9 µM.

With `NS(=O)(=O)Cc1noc2ccccc12` [Zonisamide], the IC50 in test [2] was 22.6 µM.
